Data as given in patent US20130143929A1, “FUNGICIDAL IMIDAZOLES” (EI DU PONT DE NEMOURS AND COMPANY, priority 2010, published 2013).
Marks after values point to notes of the source that are not given here.

Columns and labels:
Type in all cases: in vivo
[1] = tested on: Septoria tritici (the causal agent of wheat leaf blotch); assay: Test B: wheat leaf blotch, preventive spray on wheat seedlings, visual disease rating; conditions: for Test B rating (100 = 100% disease control, 0 = no disease control relative to the controls): wheat leaf blotch, preventive spray on wheat seedlings
Procedure, shortened: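 Preventive test: Septoria tritici spores applied one day after run-off spraying of seedlings (200 ppm equals 800 g/ha; some tests 40 ppm). After 48 h at 24 °C saturated atmosphere and 19 days at 20 °C, disease scored visually as % control relative to untreated plants.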

[2] = tested on: Blumeria graminis f. sp. tritici (also known as Erysiphe graminis f. sp. tritici, the causal agent of wheat powdery mildew); assay: Test D: wheat powdery mildew, preventive spray on wheat seedlings, visual disease rating; conditions: for Test D rating (100 = 100% disease control, 0 = no disease control relative to the controls): wheat powdery mildew, preventive spray on wheat seedlings
Procedure, shortened: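 Preventive test: seedlings sprayed to run-off and inoculated with powdery mildew spores one day later. Suspensions were made in 50/50 acetone/water with 250 ppm Trem 014 surfactant (200 ppm equals 800 g/ha). Visual ratings after 8 days at 20 °C give percent disease control versus controls.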

[3] = tested on: Puccinia recondite f. sp. tritici (the causal agent of wheat leaf rust); assay: Test A: wheat leaf rust, preventive spray on wheat seedlings, visual disease rating; conditions: for Test A rating (100 = 100% disease control, 0 = no disease control relative to the controls): wheat leaf rust, preventive spray on wheat seedlings
Procedure, shortened: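 This was a preventive test: Puccinia recondite f. sp. tritici inoculum was applied one day after compound spray to run-off. Test suspensions were made in 50/50 acetone/water with 250 ppm surfactant, at 200 ppm (800 g/ha equivalent) or 40 ppm. Visual ratings of % disease control relative to controls were made after 24 h of saturated humidity and 7 growth-chamber days, all at 20° C.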

[4] = tested on: Botrytis cinerea (the causal agent of tomato Botrytis); assay: Test C: tomato Botrytis, preventive spray on tomato seedlings, visual disease rating; conditions: for Test C rating (100 = 100% disease control, 0 = no disease control relative to the controls): tomato Botrytis, preventive spray on tomato seedlings
Procedure, shortened: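 Preventive test: B. cinerea spore inoculation one day after tomato seedlings were sprayed to run-off with compound suspended in 50/50 acetone–water plus 250 ppm surfactant. Plants held 48 h at 20° C in saturated air, then 3 days at 24° C; visual ratings scored 100 (full control) to 0 versus controls; some entries used 40 ppm.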

[5] = no asterisk (standard test suspension concentration, not 40 ppm)
[6] = asterisk: 40 ppm test suspension
[7] = no asterisk: standard test suspension concentration, 100 = 100% disease control, 0 = no control relative to controls

SMILES | Test B rating (100 = 100% disease control, 0 = no disease control relative to the controls) [1, 5] | Test D rating (100 = 100% disease control, 0 = no disease control relative to the controls) [2, 5] | Test A rating (100 = 100% disease control, 0 = no disease control relative to the controls) [3, 5] | Test C rating (100 = 100% disease control, 0 = no disease control relative to the controls) [4, 5] | Test B rating (100 = 100% disease control, 0 = no disease control relative to the controls) [1, 6] | Test D rating (100 = 100% disease control, 0 = no disease control relative to the controls) [2, 6] | Test A rating (100 = 100% disease control, 0 = no disease control relative to the controls) [3, 6] | Test C rating (100 = 100% disease control, 0 = no disease control relative to the controls) [4, 6] | further results
OC(c1ccc(Cl)cc1)c1c(Cl)nc(Cl)n1-c1ccc(F)cc1Cl (single isomer, unassigned) [compound 47] | 100% | 0% | 100% | 99% | – | – | – | – | –
Cc1cccc(Cl)c1-n1c(C)nc(Br)c1C(O)c1ccc(F)cc1F (centres unmarked) [compound 317] | – | – | – | – | 89* % | 56* % | 100* % | 96* % | –
Cc1ncc(C(O)c2ccc(F)cc2F)n1-c1ccc(F)cc1F (centres unmarked) [compound 381] | – | – | – | – | – | – | – | – | Test B rating (% disease control, wheat leaf blotch) [1, 7]: 97%; Test D rating (% disease control, wheat powdery mildew) [2, 7]: 0%; Test A rating (% disease control, wheat leaf rust) [3, 7]: 88%; Test C rating (% disease control, tomato Botrytis) [4, 7]: 0%
COc1cc(F)c(C(O)c2c(Br)nc(Br)n2-c2ccc(F)cc2Cl)c(F)c1 (racemic) [compound 235] | – | – | – | – | 100* % | 99* % | 100* % | 100* % | –
Cc1nc(Br)c(C(O)c2c(F)cc(F)cc2F)n1-c1ccc(F)cc1F (centres unmarked) [compound 177] | 100% | 0% | 100% | 99% | – | – | – | – | –
Cc1nc(Cl)n(-c2ccc(F)cc2F)c1C(O)c1ccc(Cl)cc1 (centres unmarked) [compound 163] | 100% | 13% | 98% | 100% | – | – | – | – | –
Cc1nc(Cl)n(-c2c(F)cc(F)cc2Cl)c1C(O)c1ccc(F)cc1F (racemic) [compound 8] | 100% | 100% | 100% | 100% | – | – | – | – | –
Cc1nc(Cl)n(-c2c(F)cc(Cl)cc2F)c1C(O)c1ccc(F)cc1F (racemic) [compound 273] | – | – | – | – | 100* % | 0* % | 100* % | 99* % | –
COc1ccc(C(O)c2c(Cl)nc(Br)n2-c2c(F)cccc2F)c(Cl)c1 (racemic) [compound 237] | – | – | – | – | 100* % | 98* % | 100* % | 100* % | –
COc1ccc(C(O)c2c(Br)nc(C)n2-c2c(F)cc(F)cc2Br)c(F)c1 (centres unmarked) [compound 348] | – | – | – | – | 100* % | 90* % | 100* % | 98* % | –
Cc1nc(Br)c(C(O)c2ccc(Cl)cc2)n1-c1ccc(Cl)cc1Cl (racemic) [compound 243] | – | – | – | – | 95* % | 79* % | 98* % | 91* % | –
Cc1nc(Cl)c(C(O)c2ccc(Cl)cc2)n1-c1ccc(F)cc1Cl (centres unmarked) [compound 59] | 100% | 73% | 100% | 99% | – | – | – | – | –
COc1ccc(C(O)c2c(Br)nc(Cl)n2-c2c(F)cccc2F)c(Cl)c1 (stereo not drawn) [Compound 287, 4-bromo-2-chloro-α-(2-chloro-4-methoxyphenyl)-1-(2,6-difluorophenyl)-1H-imidazole-5-methanol] | – | – | – | – | 100* % | 97* % | 100* % | 100* % | –
Cc1cc(F)ccc1C(O)c1c(Cl)nc(Cl)n1-c1c(F)cc(F)cc1Cl (racemic) [compound 14] | – | 100% | 100% | 99% | 100* % | – | – | – | –
OC(c1ccc(F)cc1Cl)c1c(Cl)ncn1-c1c(F)cccc1F (stereo not drawn) [Compound 1, 4-chloro-α-(2-chloro-4-fluorophenyl)-1-(2,6-difluorophenyl)-1H-imidazole-5-methanol] | 100% | 99% | 100% | 99% | – | – | – | – | –
Cc1nc(Cl)c(C(O)c2ccc(Cl)cc2F)n1-c1c(F)cccc1F (centres unmarked) [compound 54] | – | – | – | – | 100* % | 69* % | 98* % | 80* % | –
Cc1ncc(C(O)c2ccc(F)cc2Cl)n1-c1ccc(F)cc1F (centres unmarked) [compound 360] | 93% | 0% | 99% | 67% | – | – | – | – | –
Cc1ccc(C(O)c2c(Br)nc(C)n2-c2c(F)cccc2F)c(F)c1 (centres unmarked) [compound 52] | – | – | – | – | 100* % | 35-* % | 99* % | 37* % | –
Cc1cc(F)ccc1C(O)c1c(Cl)nc(Cl)n1-c1c(F)cccc1Cl (racemic) [compound 23] | 100% | 100% | 100% | 100% | – | – | – | – | –
COc1cc(F)c(C(O)c2c(Br)nc(C)n2-c2ccc(F)cc2Br)c(F)c1 (centres unmarked) [compound 323] | – | – | – | – | 100* % | 99* % | 100* % | 100* % | –
Cc1nc(Cl)c(C(O)c2ccc(C#N)cc2F)n1-c1c(F)cccc1F (centres unmarked) [compound 180] | – | – | – | – | 48* % | 0* % | 0* % | 0* % | –
OC(c1ccc(F)cc1F)c1c(Cl)ncn1-c1ccc(F)cc1Cl (stereo not drawn) [Compound 2, 4-chloro-1-(2-chloro-4-fluorophenyl)-α-(2,4-difluorophenyl)-1H-imidazole-5-methanol] | 100% | 81% | 100% | 100% | – | – | – | – | –
Cc1nc(Br)c(C(O)c2ccc(F)cc2Cl)n1-c1c(F)cccc1F (centres unmarked) [compound 99] | – | – | – | – | 100* % | 98* % | 100* % | 99* % | –
